Data on 16 compounds can be found in patent publication US6683095B2, “CDK inhibitors having 3-hydroxychromen-4-one structure” (LG Life Sciences Ltd., priority 2000, dated 2004).

Data set [1] deals with T1, CDK4/cyclin D1 (Homo sapiens, UniProt P11802).
T1 construct: GST; made in house; host or cells: insect cell
The data set can be described thus: Inhibitory activity against CDK4 (CDK4/cyclin D1 kinase assay, GST-Rb substrate, 32P-ATP). Conditions: 100 μM ATP, 30° C., 30 minutes. It counts as biochemical. Here is the method:
(§1) The activities of CDK2/cyclin A and CDK4/cyclin D1 were determined as follows. About 100 ng of enzyme was reacted in a total 100 μl of 20 mM Tris(pH 8.0), 100 mM NaCl, 10 mM MgCl2 buffer solution containing 20 μg of GST-Rb protein, 100 μM of ATP and 5 μCi of p^32-γ-ATP at 30° C. for 30 minutes. Then, EDTA was added to a concentration of 20 mM to stop the enzyme reaction. Subsequently, 30 μl of 50% glutathione bead (purchased from Pharmacia) was added to attach GST-Rb to the bead, which was washed three times with 20 mM Tris(pH 8.0), 100 mM NaCl, 10 mM EDTA solution, and then scintillation counting was carried out. To analyze the inhibitory activity of the compound, the inhibitor having a proper concentration was added to the enzyme reaction solution, and then the enzyme activity was measured according to the above method.

The target of data set [2] is T2, CDK2/cyclin A (Homo sapiens, UniProt P24941).
T2 construct: His; made in house; host or cells: insect cell (baculovirus co-infection)
Kind of data set: Inhibitory activity against CDK2 (CDK2/cyclin A kinase assay, GST-Rb substrate, 32P-ATP). It counts as biochemical. Conditions: 100 μM ATP, 30° C., 30 minutes. Here is the method: The inhibitory activity against CDK2 was measured by referring to Kitagawa, M. et al., Oncogene 9; 2549, 1994 and that against CDK4 was measured by referring to Carlson, B. A. et al., Cancer Research 56; 2473, 1996.
The part of amino acid positions 780 to 928 of C-terminus of human Rb protein was isolated, N-terminus thereof was labelled with GST protein, large amount thereof was expressed in bacteria and purified to be used as the substrate for the enzyme.
as §1
The inhibitory activity against CDK2 and CDK4 of the compound of formula (1) according to the present invention was represented as IC50 value (see the following Table 1).

Data set [3] is described as follows: Acute oral toxicity test. The note with it: mouse, in vivo; oral administration, ICR male, observed 7 days, Litchfield-Wilcoxon method. Here is the method:
To determine the acute oral toxicities of the test compounds, solutions containing a compound in different concentrations from each other were administered orally to ICR male with a dose of 10 ml/kg body weight. After oral administration, lethality and symptoms for 7 days were observed, and LD50 (mg/kg) was calculated according to Litchfield-Wilcoxon method.

Each structure is given as a SMILES string. pIC50: −log10 of the molar value.

T1 sequence (P11802 whole entry): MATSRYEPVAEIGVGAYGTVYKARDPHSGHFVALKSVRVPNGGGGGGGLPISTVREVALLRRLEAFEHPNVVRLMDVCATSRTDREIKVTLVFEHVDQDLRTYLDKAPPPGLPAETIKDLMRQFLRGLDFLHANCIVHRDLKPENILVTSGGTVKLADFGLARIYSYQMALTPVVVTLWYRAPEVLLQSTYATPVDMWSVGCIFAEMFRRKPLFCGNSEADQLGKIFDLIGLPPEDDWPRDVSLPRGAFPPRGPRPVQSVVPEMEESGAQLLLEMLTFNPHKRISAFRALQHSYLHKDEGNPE
T1 sequence (P24385 whole entry partner): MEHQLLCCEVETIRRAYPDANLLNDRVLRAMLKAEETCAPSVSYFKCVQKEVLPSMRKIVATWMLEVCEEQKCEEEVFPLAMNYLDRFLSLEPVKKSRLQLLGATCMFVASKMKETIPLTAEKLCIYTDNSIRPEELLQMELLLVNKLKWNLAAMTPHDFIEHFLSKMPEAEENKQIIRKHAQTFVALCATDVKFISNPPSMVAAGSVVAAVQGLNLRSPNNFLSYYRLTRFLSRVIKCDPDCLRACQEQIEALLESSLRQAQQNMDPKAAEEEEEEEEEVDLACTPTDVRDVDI

The term pIC50 denotes the negative decadic logarithm of the IC50, by convention in mol/L. A word on the LD50: it is the dose expected to kill half of the subjects tested. Read a low LD50 as a more toxic substance. In the case of `Cc1cc(-c2cc[n+](C)cc2)c2oc(-c3ccc(O)c(Cl)c3)c(O)c(=O)c2c1` [Compound 40, 4-[2-(3-chloro-4-hydroxyphenyl)-3-hydroxy-6-methyl-4-oxo-4H-chromen-8-yl]-1-methylpyridinium bromide], the negative-log IC50 (pIC50) in data set [1] was 6.51; in data set [2], 6.15. This compound also had an LD50 at 7 days in data set [3] greater than 3000 mg/kg.

As to `CNc1cc(N2CCCS2(=O)=O)c2oc(-c3ccc(O)c(Cl)c3)c(O)c(=O)c2c1` [Compound 37, 2-[2-(3-chloro-4-hydroxyphenyl)-6-(methylamino)-3-hydroxy-4-oxo-4H-chromen-8-yl]-1λ^6-isothiazolidin-1,1-dione], the figures for the negative-log IC50 (pIC50) in data set [1] and in data set [2] were 6.74 and 6.70, respectively. In addition, the 50% lethal dose (LD50) at 7 days in data set [3] is greater than 3000 mg/kg.

As for `Cc1cc(C2CCN(C)CC2)c2oc(-c3ccc(O)c(Cl)c3)c(O)c(=O)c2c1` [Compound 38, 2-(3-chloro-4-hydroxyphenyl)-3-hydroxy-6-methyl-8-(1-methyl-4-piperidinyl)-4H-chromen-4-one], the pIC50 in data set [1] is 6.92; in data set [2], 6.30. Also, the LD50 at 7 days in data set [3] is greater than 3000 mg/kg.

Regarding `Cc1cc(N2CCCS2(=O)=O)c2oc(-c3ccc(O)cc3)c(O)c(=O)c2c1` [Compound 15, 2-[3-hydroxy-2-(4-hydroxyphenyl)-6-methyl-4-oxo-4H-chromen-8-yl]-1λ^6-isothiazolidin-1,1-dione], the values for the negative-log IC50 (pIC50) in data set [1] and in data set [2] were 6.26 and 6.60, respectively. This compound came in with a median lethal dose (LD50) at 7 days in data set [3] greater than 3000 mg/kg.

For `Cc1cc(N2CCCS2(=O)=O)c2oc(-c3ccc(O)c(Cl)c3)c(O)c(=O)c2c1` [Compound 17, 2-[2-(3-chloro-4-hydroxyphenyl)-3-hydroxy-6-methyl-4-oxo-4H-chromen-8-yl]-1λ^6-isothiazolidin-1,1-dione], the pIC50 in data set [1] was 6.71; in data set [2] it was 6.73. In data set [3], this compound yielded a median lethal dose (LD50) at 7 days greater than 3000 mg/kg.

As to `Nc1cc(N2CCCS2(=O)=O)c2oc(-c3ccc(O)c(Cl)c3)c(O)c(=O)c2c1` [Compound 35, 2-[6-amino-2-(3-chloro-4-hydroxyphenyl)-3-hydroxy-4-oxo-4H-chromen-8-yl]-1λ^6-isothiazolidin-1,1-dione], the pIC50 in data set [1] is 6.74; in data set [2] it was 7.15.

With `Cc1cc(N2CCCS2(=O)=O)c2oc(-c3ccc(O)c(Br)c3)c(O)c(=O)c2c1` [Compound 18, 2-[2-(3-bromo-4-hydroxyphenyl)-3-hydroxy-6-methyl-4-oxo-4H-chromen-8-yl]-1λ^6-isothiazolidin-1,1-dione], the negative-log IC50 (pIC50) is 6.68 in data set [1] and 7.12 in data set [2].

For the compound `CN(CCO)c1cc(N2CCCS2(=O)=O)c2oc(-c3ccc(O)cc3)c(O)c(=O)c2c1` [Compound 33, 2-{3-hydroxy-6-[(2-hydroxyethyl)(methyl)amino]-2-(4-hydroxyphenyl)-4-oxo-4H-chromen-8-yl}-1λ^6-isothiazolidin-1,1-dione], the negative logarithm of the IC50 (pIC50) in data set [1] was 6.05; in data set [2] it was 6.22.

Consider `Cc1cc(-c2ccncc2)c2oc(-c3ccc(O)c(Cl)c3)c(O)c(=O)c2c1` [Compound 39, 2-(3-chloro-4-hydroxyphenyl)-3-hydroxy-6-methyl-8-(4-pyridinyl)-4H-chromen-4-one], for which the pIC50 in data set [1] was 6.55; in data set [2], 6.89.

Regarding `Cc1ccc2oc(-c3ccc(O)c(O)c3O)c(O)c(=O)c2c1` [Compound 13, 3-hydroxy-6-methyl-2-(2,3,4-trihydroxyphenyl)-4H-chromen-4-one], the values for the negative-log IC50 (pIC50) in data set [1] and in data set [2] were 4.30 and 3.00, respectively.

In the case of `Cc1cc(N)c2oc(-c3ccc(N)cc3)c(O)c(=O)c2c1` [Compound 11, 8-amino-2-(4-aminophenyl)-3-hydroxy-6-methyl-4H-chromen-4-one], the pIC50 in data set [1] is 4.30; in data set [2], 3.82.

In the case of `Cc1cc(C2CCN(CCO)CC2)c2oc(-c3ccc(O)c(Cl)c3)c(O)c(=O)c2c1` [Compound 44, 2-(3-chloro-4-hydroxyphenyl)-3-hydroxy-8-[1-(2-hydroxyethyl)-4-piperidinyl]-6-methyl-4H-chromen-4-one], the negative-log IC50 (pIC50) in data set [1] and in data set [2] was greater than 6.00 in each case.

Take `Cc1ccc2oc(-c3ccc(O)c(O)c3Br)c(O)c(=O)c2c1` [Compound 14, 2-(2-bromo-3,4-dihydroxyphenyl)-3-hydroxy-6-methyl-4H-chromen-4-one]: the figures for the pIC50 in data set [1] and in data set [2] were 4.96 and 3.30, respectively.

In the case of `Cc1cc(N)c2oc(-c3cccc(O)c3)c(O)c(=O)c2c1` [Compound 12, 8-amino-3-hydroxy-2-(3-hydroxyphenyl)-6-methyl-4H-chromen-4-one], the figures for the negative logarithm of the IC50 (pIC50) in data set [1] and in data set [2] were 5.68 and 5.70, respectively.

`CN(C)c1cc(N2CCCS2(=O)=O)c2oc(-c3ccc(O)c(Cl)c3)c(O)c(=O)c2c1` [Compound 36, 2-[2-(3-chloro-4-hydroxyphenyl)-6-(dimethylamino)-3-hydroxy-4-oxo-4H-chromen-8-yl]-1λ^6-isothiazolidin-1,1-dione]: the pIC50 in data set [1] was 6.22; in data set [2] it was 6.30. For the same compound, in data set [3], the LD50 at 7 days was greater than 3000 mg/kg.

With `Cc1cc(C2CCN(CCN)CC2)c2oc(-c3ccc(O)c(Cl)c3)c(O)c(=O)c2c1` [Compound 45, 8-[1-(2-aminoethyl)-4-piperidinyl]-2-(3-chloro-4-hydroxyphenyl)-3-hydroxy-6-methyl-4H-chromen-4-one], the negative-log IC50 (pIC50) in data set [1] and in data set [2] was greater than 6.00 in each case.
